Peptide text beside a SMILES is read from it.

Regarding `NNC(=O)c1cccc(F)c1`, the melting point lay in the range of 138 to 139 °C.

On to `NCCCC(N)C(=O)O` (centres undefined), for which the melting point was determined as 140 °C.

In turn, `CN(C)c1cccc(C(=O)O)c1` yielded a melting point of 151 °C.

For the molecule `Fc1cc(Br)c(Br)cc1F`, the melting point was found to be 33 °C.

With `OC(c1ccccc1)C(O)(c1ccccc1)c1ccccc1` (centres undefined), the melting point worked out at 163 °C.

As for `CCN(CC)C(=O)n1cnc(S(=O)(=O)c2c(C)cc(C)cc2C)n1`, the melting point came to 115 °C.

Take `N#Cc1c(F)cccc1OCC(F)(F)F`: the melting point is 88 to 90 °C.

`CC(C)CC(C)(C)CO` yielded a melting point of -70 °C.

`CC1=NNC(=O)CC1`: the melting point fell in the range of 79 to 83 °C.

With `Cc1ccccc1C(=O)NCC(=O)O`, the melting point fell in the range of 161 to 165 °C.

As to `Cc1ccc(Br)nc1`, the melting point amounted to 43 °C.

Turning to `CCOC(=O)c1cn2ccsc2n1`, the melting point is 87 to 91 °C.

Regarding `O=C1CCCC2=C1[C@@H](c1cccc([N+](=O)[O-])c1)[C@@H]1C(=O)CCC[C@@]1(O)O2`, the melting point was found to be 219 °C.

The molecule `O=C(O)c1cccc(F)c1O` showed a melting point of 147 °C.

With `O=C(NC(=O)c1c(F)cccc1F)Nc1ccc(Cl)cc1`, the melting point was found to be 239 °C.

As for `Cc1ccc(C=C2N=C(c3ccccc3)OC2=O)o1`, the melting point fell in the range of 159 to 160 °C.

`CCC1Oc2ccccc2C(=O)NC1=O` (centres undefined) yielded a melting point of 162 to 164 °C.

On to `CC1(C)CC(=O)C2=C(C1)Nc1c(ccc3ccccc13)C2c1ccc(Cl)cc1` (centres undefined), for which the melting point amounted to 139 °C.

Turning to `Nc1ccccc1SCCS(=O)(=O)c1ccc(Cl)cc1`, the melting point was in the range of 135 to 137 °C.

In turn, `NS(=O)(=O)c1cc2c(cc1C(F)(F)F)NCNS2(=O)=O` came in with a melting point of 272 °C.

`O=C(Nc1ccccc1[N+](=O)[O-])C(F)(F)C(F)(F)C(F)(F)C(F)(F)C(F)(F)C(F)(F)C(F)(F)C(F)(F)F`: the melting point stood at 94 °C.

As to `Oc1ncc(C(F)(F)F)cc1Cl`, the melting point was 157 to 159 °C.

As for `CC(=Cc1ccccc1)C(=O)O`, the melting point worked out at 80 °C.

As for `CC(C)(C)OC(=O)NCC(N)=S`, the melting point fell in the range of 129 to 131 °C.

In turn, `CCCCCCCCC(=O)c1ccc(/N=N/c2ccc(OCC)cc2)cc1` had a melting point of 63 to 108 °C.

On to `c1cc(CCCc2ccncc2)ccn1`, for which the melting point was found to be 55 °C.

For `CCOC(=O)C1=C(C)NC(=S)NC1c1ccccc1` (centres undefined), the melting point lay within 207 to 209 °C.

As to `Cc1c(C(=O)CBr)sc2ccccc12`, the melting point is 98 to 99 °C.

The molecule `CCCCCCCCCCCCCCCCCC(=O)Nc1ccc(O)cc1` showed a melting point of 134 °C.

As for `O=C(O)c1ccnnc1`, the melting point was 237 to 240 °C.

Molecule `Cc1cc(C(=O)O)cc(C)c1OCc1ccccc1` gave a melting point of 159 °C.

Molecule `FC(F)(F)C1(F)C(F)(F)C(F)(F)C(F)(F)C(F)(F)C1(F)C(F)(F)F` (centres undefined) registered a melting point of -56 °C.

`CC(=O)N[C@H]1C(O)O[C@H](CO)[C@@H](O)[C@@H]1O` (some centres undefined) yielded a melting point of 211 °C.

Take `CC12CCC(O)CC1CCC1C2C(O)CC2(C)C1CCC2(O)C(=O)CO` (centres undefined): the melting point worked out at 244 °C.

The molecule `NNc1ccc(C(F)(F)F)cc1` had a melting point of 62 °C.

Take `CCCCCCCCCCCCCCCCCCNC`: the melting point amounted to 44 °C.

Consider `O=C1CCCCCC1=O`, for which the melting point is -40 °C.

`O=C(O)C(F)(F)C(F)(F)C(F)(F)C(F)(F)C(F)(F)C(F)(F)C(F)(F)C(F)(F)C(F)(F)C(F)(F)C(F)(F)C(F)(F)C(F)(F)F` showed a melting point of 130 °C.

As for `O=c1occc2ccccc12`, the melting point amounted to 47 °C.

As for `Cc1cc(Br)c(N)cc1OCc1ccccc1`, the melting point fell in the range of 137 to 138 °C.

Consider `COc1cc(-c2ccccc2)c(C)cc1N`, for which the melting point was in the range of 65 to 67 °C.

On to `COc1ccc(C=CNC=O)cc1`, for which the melting point is 132 °C.

For `COc1ccc(CNC(=O)c2ccccc2)cc1OCc1ccccc1`, the melting point was found to be 143 °C.

For the molecule `Cc1cc(/C=C/c2ccccc2N)c(N)cc1N`, the melting point amounted to 151 °C.

In turn, `C[C@@]1(CO)N[C@H](C(=O)O)CC2c3ccccc3NC21` (some centres undefined) yielded a melting point of 258 to 262 °C.

The molecule `C1OC1C1CO1` (centres undefined) gave a melting point of 4 °C.

On to `CC(=O)c1ccc(Cl)s1`, for which the melting point came out at 49 °C.

`Cc1ccc(C)c(N/N=C(\C#N)c2nc3ccccc3n2C)c1` displayed a melting point of 260 °C.

`CCOC(=O)c1cc(C(C)(C)C)nn1Cc1c(C)cc(C)cc1C` returned a melting point of 72 to 74 °C.

Turning to `OCC1CCNCC1`, the melting point was 59 °C.

As for `Cn1ccc2ccc(C(=O)O)cc21`, the melting point was found to be 197 °C.

For the molecule `CCOC(=O)Nc1cccc(OC(=O)Nc2ccccc2)c1`, the melting point came to 120 °C.

Regarding `CCN(C(=O)Oc1cccc(NC(=O)OC(C)C)c1)c1ccccc1`, the melting point is 110 °C.

As to `Clc1ccc(-c2nnn[nH]2)cc1Cl`, the melting point came to 161 °C.

For the molecule `O=S(O)c1ccc(Cl)cc1`, the melting point worked out at 99 °C.

Regarding `O=C(O)c1ccccc1C(=O)Nc1ccc(S(=O)(=O)N=c2[nH]ccs2)cc1`, the melting point was 273 °C.

On to `Cc1nc2ccccc2n1CCC(=O)NN1C(=O)CSC1c1ccccc1Cl` (centres undefined), for which the melting point was determined as 250 °C.

`COc1ccc(C(N)CCO)cc1` (centres undefined): the melting point was in the range of 82 to 86 °C.

As to `ClCc1nnc(-c2ccc3ccccc3c2)o1`, the melting point was 128 to 130 °C.

The molecule `Brc1cnc2c(c1)OCCN2` registered a melting point of 116 to 119 °C.

Regarding `CN(C)c1nc2ccccc2cc1C=O`, the melting point is 52 to 53 °C.

The molecule `Cc1cccc(C)c1C#N` registered a melting point of 90 °C.

For the molecule `Cn1c(/C(C#N)=N/Nc2ccc(C(=O)O)cc2)nc2ccccc21`, the melting point is 200 °C.

`C=CCNC(=S)NNC(=O)C(=O)c1c[nH]c2ccccc12`: the melting point came out at 229 °C.

`COc1ccccc1Nc1[nH]c(=S)nnc1-c1ccccc1`: the melting point fell in the range of 241 to 242 °C.

Turning to `O=C1CC(c2cccc(C3=NOC(=O)C3)c2)=NO1`, the melting point was determined as 190 °C.

Molecule `CC(C)(C)[Si](C)(C)N1C(=O)C[C@@H]1C(=O)O` came in with a melting point of 137 to 141 °C.

`C=CC(=O)OCC(CC)CCCC` (centres undefined) gave a melting point of -90 °C.

For the molecule `CCN(CC)CC(O)CO` (centres undefined), the melting point is -30 °C.

On to `O=C(NCCO[N+](=O)[O-])c1cccnc1`, for which the melting point turned out to be 92.5 °C.

`O=C(O)c1ccc(-n2nc(C(=O)c3cccs3)s/c2=N\C(=O)c2ccccc2)cc1` returned a melting point of 219 °C.

`CC(=O)Nc1ccc(N=Nc2ccc([N+]([O-])=Nc3ccc(NC(C)=O)cc3)cc2)cc1` came in with a melting point of 317 °C.

`CCCCCCN(C)C(=O)COC(=O)c1ccccc1` showed a melting point of 100 °C.

The molecule `CCCCCCCCCCOc1ccc(/N=N/c2ccc(CCCC)cc2)cc1` had a melting point of 55.5 to 74 °C.

`O=C(O)CCc1ccc(Br)cc1` gave a melting point of 135 °C.

Regarding `CCOC(=O)Oc1c(OC)cc(C(=O)O)cc1OC`, the melting point lay within 180 to 185 °C.

In the case of `CCCCCC(=O)Nc1ccc(Cl)c(Cl)c1`, the melting point is 106 °C.

`N=C(N)NCC(O)CC(O)(C(=O)O)C1OC(n2cc(CO)c(N)nc2=O)C=CC1NC(=O)C(N)CO` (centres undefined) returned a melting point of more than 300 °C.

`NN=C(C(=O)c1ccccc1)c1ccccc1` returned a melting point of 147 to 151 °C.

Regarding `CC(=O)Nc1cc([N+](=O)[O-])ccc1Nc1ccc(C)cc1`, the melting point turned out to be 176 °C.

The molecule `CCCCCCCCOc1ccc(C=O)cc1OCCCCCCCC` registered a melting point of 54 to 56 °C.

The molecule `N[C@@H](CC(=O)O)C(=O)N[C@@H](Cc1ccccc1)C(=O)O` (H-Asp-Phe-OH) showed a melting point of 236 to 239 °C.

Take `O=C1Nc2c(Cl)ccc(Cl)c2C1=O`: the melting point is 251 to 254 °C.

Consider `CCCCC(=O)Cl`, for which the melting point was -110 °C.

`CC1(C)CCC2(C(=O)O)C(O)CC3(C)C(=CCC4C5(C)CCC(O)C(C)(C=O)C5CCC43C)C2C1` (centres undefined): the melting point worked out at 294 °C.

The molecule `O=C(NCCCl)c1ccccc1` showed a melting point of 103 °C.

As for `CC(C)(C)NC=O`, the melting point stood at 16 °C.

In turn, `CC(C)(NC(=O)C(Br)C(C)(C)C)c1ccccc1` (centres undefined) gave a melting point of 180 °C.

`CN1CCN(CCCN2c3ccccc3Sc3ccc(C(F)(F)F)cc32)CC1` returned a melting point of 25 °C.

With `O=C(/C=C/O)CCc1ccccc1`, the melting point turned out to be 150 °C.

The molecule `ON=C1CCCc2nnc3c(c21)CCCC3` returned a melting point of 269 to 271 °C.

Turning to `CN(C)c1ccc(CO)cc1`, the melting point was 69 °C.

As to `COc1ccc(C(F)(F)F)cc1N`, the melting point amounted to 58 °C.

For `CC1CCCC(C)C1C` (centres undefined), the melting point was -66.9 °C.

The molecule `CC(=O)OC1CC2C(C)C(=O)C3(C4CC5C(C)(C)CCC(OC(C)=O)C5(C(OC(C)=O)O4)C13)C2OC(C)=O` (centres undefined) showed a melting point of 265 °C.

Turning to `CC(C)(C)OC(=O)N[C@H]1CCC[C@H]1C(=O)O` (relative stereo), the melting point lay in the range of 90 to 94 °C.

Molecule `O=C(c1ccc2c(c1O)CC=CC2)c1cccc2ccccc12` displayed a melting point of 132 °C.

Molecule `O=C(Nc1ccccc1CCc1ccccc1)c1ccccc1` showed a melting point of 166 °C.

Turning to `COC(=O)c1c(OC)c(OC)c(OC)c(C(=O)OC)c1C(=O)OC`, the melting point was in the range of 84 to 85 °C.

`Cn1nc(-c2ccccc2)cc1CN`: the melting point was 48 to 49 °C.

As for `O=Cc1c[nH]c2ccc([N+](=O)[O-])cc12`, the melting point came out at 300 °C.

`Nc1nc[nH]c(=O)n1` showed a melting point of 300 °C.

Consider `Cc1cc(C(C)(C)C)c(C)cc1O`, for which the melting point stood at 71.2 °C.

`COc1ccc(C=O)cc1O`: the melting point turned out to be 114 °C.

Regarding `Oc1ccc2ccccc2c1/N=N/c1ccc(/N=N\c2ccccc2)cc1`, the melting point worked out at 199 °C.

`CCC(=O)c1ccc2ccccc2c1` displayed a melting point of 60 °C.

Consider `O=C1CCCCCCCCC1O` (centres undefined), for which the melting point is 42 °C.

Take `N#CC1=C(N)Oc2c(c(C(F)(F)F)nn2-c2ccccc2)C1c1ccc(Cl)cc1` (centres undefined): the melting point is 221 °C.

Take `Cc1cccc(O)c1[N+](=O)[O-]`: the melting point is 37 °C.

By melting point is commonly meant the temperature, or range, at which the solid turns liquid.

For the origin of these results see a melting point compilation (Tetko et al.).
